The target of one assay is JAK1 (Homo sapiens, UniProt P23458). As to the kind of experiment: JAK LanthaScreen Kinase Assay (TR-FRET), JAK1 in vitro enzyme assay. The class given is biochemical. Particulars: ATP 20.0 μM; n=6. The source says:
(§1) JAK1, JAK2 and JAK3 In Vitro Enzyme Assays
(§2) The JAK LanthaScreen™ Kinase Assay (Invitrogen) is used to determine the ability of test compounds to inhibit JAK1, JAK2 and JAK3 kinase activity. These are TR-FRET assay formats that use long-lifetime terbium labeled antibody as the donor species and GFP-STAT1 as the acceptor species. Use the TR-FRET ratio to monitor JAK kinase activity where an increase in phosphorylation of the GFP-STAT1 results in an increase in the TR-FRET ratio. Perform the kinase reaction using a 12.5 μl reaction volume in shallow black 384-well Proxiplate. Add reagents to obtain final reaction conditions of […] HEPES pH, 1.76 mM Triton X-100, ATP (20.0 μM for JAK1 and JAK3 or 5 μM for JAK2) enzyme assays, 10.0 mM MgCl2, 1 mM EGTA and 0.01% Brij-35, 0.05 mM GFP-STAT1, 14 nM JAK1 enzyme for JAK1, 1.0 nM for JAK2 or 2.5 nM for JAK3 enzyme assays, and 4% DMSO and serial dilutions of test compound (diluted 1:3 from 20,000 to 1 nM). Following ATP/GFP-STAT1 addition, centrifuge the assay plates for 1 minute at 1000 revolutions per minute (RPM). Allow the plates to incubate at RT for 60 minutes and then add 12.5 μl of a stopping buffer containing 20 mM EDTA, 2 nM Terbium-anti-phosphorylated Signal Transducers and Activators of Transcription [phosphorylation Tyrosine 701 amino acid] […]
(TR-FRET usually uses a lanthanide donor and a delayed reading to cut background.)

The target in the next assay is JAK2 (Homo sapiens, UniProt O60674). As to the kind of experiment: AlphaScreen SureFire p-STAT5 (p-Tyr694/699)-EPO-JAK2 cell-based assay (UT-7 cells). On the set-up: purchased Invitrogen. Particulars: EPO 45 ng/mL, n=5, read-out: IC50, EPO-stimulated pSTAT5 JAK2 cell-based assay. The method, then: AlphaScreen SureFire Protocol p-STAT5 (p-Tyr694/699)-EPO-JAK2 Cell-Based Assay
Chain of JAK2 (O60674 whole entry): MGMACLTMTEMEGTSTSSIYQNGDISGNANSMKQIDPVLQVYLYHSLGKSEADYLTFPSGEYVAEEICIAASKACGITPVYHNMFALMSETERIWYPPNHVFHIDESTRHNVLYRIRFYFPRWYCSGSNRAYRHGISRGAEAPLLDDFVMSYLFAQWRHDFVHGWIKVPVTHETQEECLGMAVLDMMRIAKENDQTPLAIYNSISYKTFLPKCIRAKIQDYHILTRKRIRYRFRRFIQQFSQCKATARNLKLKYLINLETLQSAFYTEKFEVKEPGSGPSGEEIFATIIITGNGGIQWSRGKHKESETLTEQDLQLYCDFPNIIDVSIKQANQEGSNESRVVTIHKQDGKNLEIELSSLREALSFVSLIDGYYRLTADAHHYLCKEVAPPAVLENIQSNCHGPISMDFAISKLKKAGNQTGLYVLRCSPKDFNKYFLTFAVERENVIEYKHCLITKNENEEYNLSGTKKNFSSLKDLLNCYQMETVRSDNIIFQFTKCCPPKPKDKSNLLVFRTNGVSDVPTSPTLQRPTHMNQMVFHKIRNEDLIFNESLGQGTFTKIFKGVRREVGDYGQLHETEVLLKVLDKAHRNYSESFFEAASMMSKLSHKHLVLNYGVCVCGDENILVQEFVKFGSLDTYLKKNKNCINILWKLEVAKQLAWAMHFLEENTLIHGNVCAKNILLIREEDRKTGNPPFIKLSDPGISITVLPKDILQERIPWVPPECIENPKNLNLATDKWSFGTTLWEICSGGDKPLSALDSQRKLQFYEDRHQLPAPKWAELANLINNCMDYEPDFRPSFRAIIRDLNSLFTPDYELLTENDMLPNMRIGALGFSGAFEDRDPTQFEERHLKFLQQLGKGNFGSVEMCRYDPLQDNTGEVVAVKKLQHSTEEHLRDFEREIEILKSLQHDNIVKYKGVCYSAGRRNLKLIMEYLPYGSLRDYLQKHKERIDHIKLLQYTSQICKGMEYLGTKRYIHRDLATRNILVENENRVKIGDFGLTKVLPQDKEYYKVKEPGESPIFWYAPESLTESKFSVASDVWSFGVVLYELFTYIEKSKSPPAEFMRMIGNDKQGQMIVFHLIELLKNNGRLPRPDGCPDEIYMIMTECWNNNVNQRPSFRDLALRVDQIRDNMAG
The fold selectivity of test compounds for JAK1 over JAK2 is determined by a cellular assay, in which EPO is used to activate JAK2-STAT5 pathway, and pSTAT5 is used as the readout.
Starve UT-7 cells overnight in DMEM medium with 0.5% […] (FBS) and 1× Pen/Strep at 37° C. (without GM-CSF). Plate 50000 cells per well in BD 96 well black plates with clear bottoms (in medium without FBS and GM-CSF). Maintain the plates at RT for 30-60 minutes before incubating overnight at 37° C. and 5% CO2. Count cells using Vi-Cell counter, use a cell suspension at 500000 cells/mL and plated 100 μL/well in […] Biocoat plates Catalog #354640. […]
Follow the following steps sequentially: make acceptor mix (activation buffer/reaction buffer/acceptor beads); transfer 4 μL lysate from 96 well plates to 384 well-Proxiplate; add 5 μL acceptor mix to 384 proxiplate plate(s) with multidrop combi; seal plates with aluminum seal; shake 1-2 minutes on plate shaker; incubate plate at RT for 2 hr with gentle shaking; make donor mix (donor beads in dilution buffer); add 2 μl donor mix to assay plates with multidrop combi; seal plates with aluminum seal; shake 1-2 minutes on plate shaker; incubate at RT for 2 hr with gentle shaking; read plate with Envision; protocol AlphaScreen Surefire 384.
On the technique in general: Bead proximity is the source of the signal in Alpha formats.

A further assay addresses T1, JAK3 (Homo sapiens, UniProt P52333).
T1 construct: purchased Invitrogen
T1 sequence (P52333 1-1124): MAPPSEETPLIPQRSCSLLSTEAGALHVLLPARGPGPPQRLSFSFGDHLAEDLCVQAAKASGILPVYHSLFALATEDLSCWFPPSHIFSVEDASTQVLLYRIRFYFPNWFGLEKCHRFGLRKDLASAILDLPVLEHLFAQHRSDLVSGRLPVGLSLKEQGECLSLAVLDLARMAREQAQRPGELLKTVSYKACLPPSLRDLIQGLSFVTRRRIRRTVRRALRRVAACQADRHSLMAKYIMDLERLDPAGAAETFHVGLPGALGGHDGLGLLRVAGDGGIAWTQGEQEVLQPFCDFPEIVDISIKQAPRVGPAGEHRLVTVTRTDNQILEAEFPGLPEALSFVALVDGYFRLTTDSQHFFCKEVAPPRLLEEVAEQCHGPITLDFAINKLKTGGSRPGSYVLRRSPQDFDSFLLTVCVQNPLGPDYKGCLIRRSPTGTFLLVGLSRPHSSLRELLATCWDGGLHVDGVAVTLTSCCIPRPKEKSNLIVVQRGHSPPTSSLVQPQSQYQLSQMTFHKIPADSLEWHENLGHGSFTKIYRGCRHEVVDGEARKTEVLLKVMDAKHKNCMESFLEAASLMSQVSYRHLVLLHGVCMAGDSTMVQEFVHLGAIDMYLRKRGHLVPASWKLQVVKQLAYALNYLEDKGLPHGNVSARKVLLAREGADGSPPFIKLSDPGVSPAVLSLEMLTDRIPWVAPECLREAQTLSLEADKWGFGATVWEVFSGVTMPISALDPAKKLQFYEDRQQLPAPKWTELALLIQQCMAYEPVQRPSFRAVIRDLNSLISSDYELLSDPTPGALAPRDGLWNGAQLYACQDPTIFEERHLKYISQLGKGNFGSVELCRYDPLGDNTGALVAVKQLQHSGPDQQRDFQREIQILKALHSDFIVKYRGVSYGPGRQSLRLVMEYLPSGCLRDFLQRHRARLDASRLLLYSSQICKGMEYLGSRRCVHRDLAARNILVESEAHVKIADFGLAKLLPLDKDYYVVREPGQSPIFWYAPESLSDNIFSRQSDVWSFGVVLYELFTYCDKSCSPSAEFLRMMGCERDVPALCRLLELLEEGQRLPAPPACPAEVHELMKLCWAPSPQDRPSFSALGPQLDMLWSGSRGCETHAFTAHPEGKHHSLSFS
Description: JAK LanthaScreen Kinase Assay (TR-FRET), JAK3 in vitro enzyme assay. The conditions noted are these: ATP 20.0 μM; n=6. It counts as biochemical.
Description: as §1, §2

Usually IC50 stands for the midpoint of a concentration-inhibition curve.

Chain of JAK1 (P23458 whole entry): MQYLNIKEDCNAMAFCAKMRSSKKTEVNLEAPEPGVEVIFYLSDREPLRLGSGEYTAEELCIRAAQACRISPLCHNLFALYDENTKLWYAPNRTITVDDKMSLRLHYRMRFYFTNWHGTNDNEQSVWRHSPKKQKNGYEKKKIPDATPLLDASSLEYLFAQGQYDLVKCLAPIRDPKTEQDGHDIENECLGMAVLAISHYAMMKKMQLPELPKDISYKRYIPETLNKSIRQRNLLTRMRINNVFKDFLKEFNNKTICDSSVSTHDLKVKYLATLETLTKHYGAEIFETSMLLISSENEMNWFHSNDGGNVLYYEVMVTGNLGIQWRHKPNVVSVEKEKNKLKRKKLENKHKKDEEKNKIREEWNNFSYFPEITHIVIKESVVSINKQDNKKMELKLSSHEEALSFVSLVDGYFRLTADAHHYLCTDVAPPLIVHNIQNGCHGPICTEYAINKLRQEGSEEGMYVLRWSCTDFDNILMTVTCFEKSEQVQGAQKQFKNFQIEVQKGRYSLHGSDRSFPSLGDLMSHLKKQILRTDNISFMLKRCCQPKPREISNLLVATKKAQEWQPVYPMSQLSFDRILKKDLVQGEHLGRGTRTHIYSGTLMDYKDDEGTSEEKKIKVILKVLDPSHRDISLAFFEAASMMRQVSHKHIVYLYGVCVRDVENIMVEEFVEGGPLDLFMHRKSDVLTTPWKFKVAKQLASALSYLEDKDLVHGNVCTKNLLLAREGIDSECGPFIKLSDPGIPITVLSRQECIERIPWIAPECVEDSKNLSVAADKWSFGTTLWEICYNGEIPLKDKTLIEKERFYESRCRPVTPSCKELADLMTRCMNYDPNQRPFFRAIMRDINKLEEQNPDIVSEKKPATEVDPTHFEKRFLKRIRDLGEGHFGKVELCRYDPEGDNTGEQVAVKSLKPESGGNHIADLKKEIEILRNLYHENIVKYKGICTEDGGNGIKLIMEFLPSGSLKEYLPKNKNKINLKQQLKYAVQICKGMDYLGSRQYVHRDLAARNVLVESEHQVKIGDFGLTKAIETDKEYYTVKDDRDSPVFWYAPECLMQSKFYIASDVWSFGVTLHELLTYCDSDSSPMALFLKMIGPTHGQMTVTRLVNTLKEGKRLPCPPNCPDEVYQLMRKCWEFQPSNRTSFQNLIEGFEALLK

In the case of `Cc1cc(Nc2cc(O[C@H]3CC[C@@H](NC[C@@H](O)C(F)(F)F)CC3)cc3c2ncn3C)nn1C` [Example 1, (2R)-3-{[cis-4-({4-[(1,5-Dimethyl-1H-pyrazol-3-yl)amino]-1-methyl-1H-benzimidazol-6-yl}oxy)cyclohexyl]amino}-1,1,1-trifluoropropan-2-ol], the values for the 50% inhibitory concentration (IC50) against JAK1, on JAK2 and against JAK3 were 4 ± 0.8 nM, 11800 nM and 1910 ± 786 nM, respectively.

These data come from patent US9556153B1, “JAK1 inhibitors” (Eli Lilly and Company, priority 2015, dated 2017).
